Measured values reported in patent US20250170136A1, “1,2,4-TRIAZIN-3(2H)-ONE COMPOUNDS FOR THE TREATMENT OF HYPERPROLIFERATIVE DISEASES” (BAYER AKTIENGESELLSCHAFT, priority 2019, published 2025).

How the values were obtained:
42-MG-BA cells = assay: Cell proliferation measurement (CellTiter-Glo, 72 h); assay type: cell-based; settings: Homo sapiens, anti-proliferation, Brain (Glioblastoma)
Method: (§1) The antiproliferative activity of the compounds of the general formula (I) was examined in vitro in human cancer cells. […] After 24 h, cells on one plate (0 h plate) were treated with 30 μl/cavity of CTG solution (Promega Cell Titer Glo (catalogue #G755B and G756B)) and incubated at room temperature for 10 min, and luminescence was measured by means of a VICTOR V (Perkin Elmer), in order to determine cell viability on commencement of treatment. The cells on the test plate were treated with the compounds of the general formula (I) as and incubated at 37° C. for 72 h. The compounds were added to the cells by means of an HP D300 digital dispenser in a 10-step 2,5-fold dilution series generally starting at a maximum final drug concentration of 100 nM, or 30 μM in the case of COV318. As control, the cells were treated with vehicle (DMSO at 0.3% final concentration). After 72 h, the cells were treated with 30 μl/cavity of CTG solution (Promega Cell Titer Glo (catalogue #G755B and G756B)) and incubated at room temperature for 10 min, and luminescence was measured by means of a VICTOR V (Perkin Elmer), in order to determine cell viability at the end of treatment. The percentage effect on cell growth and the IC50 derived therefrom were determined for each test substance using the values from the 0 h plate (=maximum inhibition) and the DMSO control (=minimum inhibition). The IC50 values were calculated using a 4-parameter fit.

92.1 cells = assay: as above; assay type: cell-based; settings: Homo sapiens, anti-proliferation, 92.1, Uveal melanoma
Method: as §1

COV318 cells = assay: as above; assay type: cell-based; settings: Homo sapiens, anti-proliferation, COV318, Ovarian cancer, maximum concentration 30 μM
Method: as §1

DKMG cells = assay: as above; assay type: cell-based; settings: Homo sapiens, anti-proliferation, Brain (Glioblastoma)
Method: as §1

GAMG cells = assay: as above; assay type: cell-based; settings: Homo sapiens, anti-proliferation, Brain (Glioblastoma)
Method: as §1

GB1 cells = assay: as above; assay type: cell-based; settings: Homo sapiens, GB-1, anti-proliferation, GB1, Brain (Glioblastoma)
Method: as §1

H4 cells = assay: as above; assay type: cell-based; settings: Homo sapiens, anti-proliferation, H4, Brain (Astrocytoma)
Method: as §1

IGR37 cells = assay: as above; assay type: cell-based; settings: Homo sapiens, IGR-37, anti-proliferation, IGR37, Melanoma
Method: as §1

M059J cells = assay: as above; assay type: cell-based; settings: Homo sapiens, anti-proliferation, Brain (Glioblastoma)
Method: as §1

PFSK cells = assay: as above; assay type: cell-based; settings: Homo sapiens, anti-proliferation, Brain (Primitive neuroectodermal tumor)
Method: as §1

U-251MG cells = assay: as above; assay type: cell-based; settings: Homo sapiens, anti-proliferation, Brain (Glioblastoma: Astrocytoma)
Method: as §1

YKG1 cells = assay: as above; assay type: cell-based; settings: Homo sapiens, YKG-1, anti-proliferation, YKG1, Brain (Glioblastoma)
Method: as §1

human full length PDE3B = human full length PDE3B (Homo sapiens (Human), UniProt Q13370); assay: PDE3B enzyme inhibition (3H-cAMP Scintillation Proximity Assay); assay type: biochemical; settings: Sf9 cell extract, 60 min room temperature
Method: The commercially available 3H-cAMP Scintillation Proximity Assay (SPA, Perkin Elmer) system was used for enzyme inhibition studies. For the determination of the in vitro effect of example compounds on the PDE3B reactions 2 μl of the respective example compound solution in DMSO (serial dilutions) were placed in wells of microtiter plates (Isoplate-96/200W; Perkin Elmer). 50 μl of a dilution of PDE3B cell extract from Sf9 cells overexpressing human full length PDE3B (SB Drug Discovery, UK) in buffer A (50 mM Tris/HCl pH 7.5, 8.3 mM MgCl2, 1.7 mM EDTA, 0.2% BSA) was added. The dilution of the PDE3B cell extract was chosen such that the reaction kinetics was linear and less than 70% of the substrate was consumed (typical dilution 1:6000). The reaction was started by addition of 50 μl (0.025 μCi) of 1:2000 in buffer A w/o BSA diluted substrate [8-3H]adenosine 3′, 5′-cyclic phosphate (1 μCi/μl; Perkin Elmer). After incubation at room temperature for 60 min, the reaction was stopped by addition of 25 μl of a suspension containing 18 mg/ml yttrium scintillation proximity beads (Perkin Elmer) in water. The microtiter plates were sealed and measured in a Microbeta scintillation counter (PerkinElmer Wallac). IC50 values were determined from sigmoidal curves by plotting percentage PDE3B activity vs log compound concentration.

[1] = In vivo pharmacokinetics in dogs (i.v.); settings: Dog/female/Beagle, 0.3 mg/kg i.v., PEG400 50% + Water 40% + EtOH 10%
Method: For in vivo pharmacokinetic experiments test compounds were administered to female CD-1 mice, male Wistar rats, Beagle dogs or Cynomolgus monkeys intravenously at doses of 0.3 to 1 mg/kg formulated as solutions using solubilizers such as PEG400 in well-tolerated amounts.
Studies may also have been performed as cassette administrations of up to 3 compounds given together simultaneously in low doses.
For pharmacokinetics after intravenous administration test compounds were given in the female mice and male rat as i.v. bolus and in dogs and monkeys as short term infusion (15 min). Blood samples were taken e.g. at 2 min, 8 min, 15 min, 30 min, 45 min, 1 h, 2 h, 4 h, 6 h, 8 h and 24 h after dosing from the vena jugularis (mouse, rat) or vena saphena (dog, monkey). […] PK parameters were calculated by non-compartmental analysis using a PK calculation software (e.g. Phoenix WinNonlin®, Certara USA, Inc.).
PK parameters derived from concentration-time profiles after i.v.: CLplasma (in L/kg/h): Total plasma clearance of test compound calculated by dose (in μg/kg) divided by area under the concentration-time curve from t=0 h to infinity (extrapolated) (AUCinf in μg*h/L); CLblood: Total blood clearance of test compound: CLplasma*Cp/Cb (in L/kg/h) with Cp/Cb being the ratio of test compound concentrations in plasma and blood. […]

Chain of human full length PDE3B (Q13370 whole entry): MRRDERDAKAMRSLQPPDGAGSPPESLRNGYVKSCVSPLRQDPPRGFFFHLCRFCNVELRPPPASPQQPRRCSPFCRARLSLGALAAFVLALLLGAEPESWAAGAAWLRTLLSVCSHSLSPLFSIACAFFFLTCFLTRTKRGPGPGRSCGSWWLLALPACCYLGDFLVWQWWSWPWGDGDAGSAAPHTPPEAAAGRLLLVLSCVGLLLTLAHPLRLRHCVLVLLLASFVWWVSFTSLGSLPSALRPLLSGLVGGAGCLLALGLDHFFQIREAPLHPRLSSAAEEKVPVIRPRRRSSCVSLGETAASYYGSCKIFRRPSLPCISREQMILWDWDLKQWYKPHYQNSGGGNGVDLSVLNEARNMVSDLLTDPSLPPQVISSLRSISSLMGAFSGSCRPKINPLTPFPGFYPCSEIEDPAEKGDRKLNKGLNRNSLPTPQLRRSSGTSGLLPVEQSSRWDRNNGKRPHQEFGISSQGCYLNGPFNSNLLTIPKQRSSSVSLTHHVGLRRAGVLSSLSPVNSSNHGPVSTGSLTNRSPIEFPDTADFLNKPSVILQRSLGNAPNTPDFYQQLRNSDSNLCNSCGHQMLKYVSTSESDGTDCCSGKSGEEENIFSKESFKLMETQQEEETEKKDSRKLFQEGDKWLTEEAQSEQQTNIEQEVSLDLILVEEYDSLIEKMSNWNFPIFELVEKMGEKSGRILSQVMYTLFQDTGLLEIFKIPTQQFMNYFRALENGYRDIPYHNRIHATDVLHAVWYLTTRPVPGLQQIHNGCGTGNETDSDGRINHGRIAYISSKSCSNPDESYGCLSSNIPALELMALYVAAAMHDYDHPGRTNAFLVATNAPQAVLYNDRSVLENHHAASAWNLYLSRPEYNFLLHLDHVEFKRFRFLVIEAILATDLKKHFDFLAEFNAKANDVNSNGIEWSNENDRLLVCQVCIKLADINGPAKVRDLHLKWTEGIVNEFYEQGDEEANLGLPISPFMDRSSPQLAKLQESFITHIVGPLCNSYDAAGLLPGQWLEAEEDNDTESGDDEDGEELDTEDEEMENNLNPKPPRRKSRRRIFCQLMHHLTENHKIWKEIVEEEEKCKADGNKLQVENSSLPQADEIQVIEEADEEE

C[C@@H]1NC(=O)NN=C1c1ccc(-n2ccc(C(F)(F)F)n2)c(C(F)(F)F)c1 [Example 1, (5S)-5-methyl-6-{3-(trifluoromethyl)-4-[3-(trifluoromethyl)-1H-pyrazol-1-yl]phenyl}-4,5-dihydro-1,2,4-triazin-3(2H)-one]
IC50 (42-MG-BA cells): > 0.1 µM | IC50 (92.1 cells): 0.0194 µM | IC50 (COV318 cells): 8.93 µM | IC50 (DKMG cells): 0.0166 µM | IC50 (GAMG cells): > 0.1 µM | IC50 (GB1 cells): 0.00896 µM | IC50 (H4 cells): 0.0477 µM | IC50 (IGR37 cells): 0.00401 µM | IC50 (M059J cells): 0.0405 µM | IC50 (PFSK cells): 0.00295 µM | IC50 (U-251MG cells): > 0.1 µM | IC50 (YKG1 cells): > 0.1 µM | IC50 (human full length PDE3B): 0.081 µM | CLblood [1]: 0.27 L/h/kg
